According to article PMC3608532, “Characterization of a Single-Chain Variable Fragment Recognizing a Linear Epitope of Aβ: A Biotechnical Tool for Studies on Alzheimer’s Disease?” (PLoS ONE, 2013):

Key:
[1] = molecular target: Aβ(2-8); experiment: SPR binding kinetics to immobilized Aβ(2-8)
Protocol: Binding kinetics were determined by SPR using a Biacore™ X (GE Healthcare, UK). Synthetic Aβ peptides were dissolved in 10 mM NaAc, pH 4.0. The CM5 sensor chip surface (GE Healthcare, UK) was activated using N-ethyl-N′-3 […] carbodiimide (EDC) and N-hydroxysuccinimide (NHS) chemistry followed by 2-(2-pyridinyldithio)ethaneamine hydrochloride (PDEA), in order to introduce a reactive thiol group. Aβ was coupled via the C-terminal cysteine to the chip at a flow rate of 5 µl/min, and the remaining active groups were blocked by injecting cysteine. The immobilization procedure was performed according to manufacturer’s recommendation. All kinetic analyses were performed at a flow rate of 20 µl/min in PBS. Varying concentrations of scFv-IC16 (10 to 5000 nM) and IC16 (10 to 1000 nM) were injected. […] When required, the surface was regenerated by injecting 20 µl 50 mM glycine, pH 11.0. The data evaluation was performed using Biaevaluation Software 4.1.1. ScFv-IC16 data were fitted according to the Langmuir 1∶1 binding model, whereas IC16 data were fitted according to the bivalent binding model. Standard errors of equilibrium dissociation constants (KD) were calculated using standard errors of the corresponding association and dissociation rate constants.

[2] = system: Aβ plaques in brain cryosections of Tg2576 mice; experiment: Ex vivo staining of plaques in mouse brain slices; conditions: 9 or 12 months old Tg2576 mice and wildtype control, 20 µm sections; scFv-IC16 400 nM, 6E10 33 nM, 1-11-3 1:200; fluorescence microscopy
Protocol: Deep frozen horizontal brain cryosections (20 µm thickness) from 9 or 12 months old Tg2576 mice and the respective wildtype control were dried in ambient air for 15 min, and then fixed in ice-cold 4% (w/v) paraformaldehyde for 20 min. Incubation with 70% formic acid for 5 min was performed to enhance immunoreactivity. Sections were permeabilized with 1% Triton X-100 in TBS for 10 min, followed by blocking with Mouse on mouse (M.O.M.) Basic Kit (Vector Laboratories) in TBS-Triton (1%, v/v) for 30 min. Primary antibodies were diluted in 1% BSA/TBS-Triton (working concentration of ScFv: 400 nM, 6E10∶33 nM, 1-11-3 (Covance, USA) in 1∶200 dilution) and probed on the sections for 1 h, incubating at room temperature. […] For double staining, two secondary antibodies (goat anti mouse-Alexa488 and goat anti rabbit-Alexa-568 were mixed directly (working concentration of goat anti rabbit-Alexa568∶1.300). After 1 min of incubation with 0.5 µg/ml DAPI, the sections were coverslip-mounted with Aqua Poly/Mont (Polysciences Inc, Worrington, PA, USA). Sections were examined under a fluorescence microscope (Leica LMD6000 (Leica, Solms, Germany). Excitation Range: UV; blue; green. Excitation Filter: Bp 420/30; Bp 495/15; Bp 570/20) with camera (Leica DFC 310 FX). Images were processed with LAS software (Leica Application Suite, V.4.0.0) and ImageJ (1.45 s).

[3] = SPR Biacore X, CM5 chip, PBS, 25°C, global fit, scFv-IC16 Langmuir 1:1 model, IC16 bivalent model, ± standard error, SEM

## scFv-IC16: single-chain variable fragment (VH-(Gly4Ser)3-VL, His6- and Myc-tag) derived from Aβ binding monoclonal antibody IC16, expressed in E. coli
[1]; SPR Biacore X, CM5 chip, PBS, 25°C, global fit, scFv-IC16 Langmuir 1:1 model, IC16 bivalent model
  Kd: 112 nM
[1]; [3]
  k off: 7.65±0.03×10^−3 s^-1
  k on: 6.84±0.03×10^4 M^-1 s^-1
[1]; SPR, Langmuir 1:1 binding model
  Kd: ~112 nM
[2]
  plaque staining in brain cryosections: detect plaques specifically
